Literature values in paper PMC6359455, “Partial Solvation Parameters of Drugs as a New Thermodynamic Tool for Pharmaceutics” (Pharmaceutics, 2019).

Set-up: method as in doi:10.1021/acs.iecr.7b02286; Vx (McGowan volume LSER descriptor): unit not given here
Details: common solvents; cited from earlier work

Structure (SMILES) | E (excess refractivity LSER descriptor) | S (polarity LSER descriptor) | Vx (McGowan volume LSER descriptor) | B (basicity LSER descriptor) | A (acidity LSER descriptor)
Cc1ccccc1 [Toluene] | 0.600 | 0.520 | 0.857 | – | –
CCC(C)=O [Methyl ethyl ketone] | 0.170 | 0.697 | 0.688 | 0.510 | –
ClC(Cl)(Cl)Cl [Carbon tetrachloride] | 0.460 | 0.380 | 0.739 | – | –
CCOC(C)=O [Ethyl acetate] | 0.110 | 0.618 | 0.747 | 0.450 | –
CCCCCC [n-Hexane] | – | – | 0.954 | – | –
OC1CCCCC1 [Cyclohexanol] | 0.461 | 0.557 | 0.904 | 0.570 | 0.320
Oc1ccccc1 [Phenol] | 0.808 | 0.890 | 0.775 | 0.300 | 0.600
OCCO [Ethylene glycol] | 0.400 | 0.900 | 0.508 | 0.780 | 0.580
CCC(C)O (stereo not drawn) [2-Butanol] | 0.220 | 0.360 | 0.731 | 0.560 | 0.330
ClC(Cl)Cl [Chloroform] | 0.430 | 0.490 | 0.617 | – | 0.150
CCCO [1-Propanol] | 0.240 | 0.420 | 0.590 | – | –
CCc1ccccc1 [Ethylbenzene] | – | 0.510 | – | – | –
CCCCCCCCCC [n-Decane] | – | – | 1.518 | – | –
C1COCCO1 [1,4-Dioxane] | 0.330 | 0.744 | 0.681 | 0.635 | –
CCCCOC(C)=O [n-Butyl acetate] | 0.071 | 0.597 | 1.028 | 0.449 | –
c1ccccc1 [Benzene] | 0.610 | 0.520 | 0.716 | – | –
CCCCCCCCC [n-Nonane] | – | – | 1.377 | – | –
CC(C)O [Isopropanol] | 0.210 | 0.366 | 0.590 | 0.560 | 0.330
CCCCCCC [n-Heptane] | – | – | 1.095 | – | –
CC#N [Acetonitrile] | 0.241 | 0.900 | 0.404 | 0.330 | 0.040
ClCCl [Dichloromethane] | 0.390 | 0.574 | 0.494 | – | 0.100
C1CCCCC1 [Cyclohexane] | 0.310 | 0.010 | 0.845 | – | –
CC(C)=O [Acetone] | 0.180 | 0.703 | 0.547 | 0.493 | –
